The text below walks through data of patent US9750809B2, “Cancer treatment” (MOREX DEVELOPMENT PARTNERS LLP, priority 2012, dated 2017).

For data set [1] the following is noted: mouse, in vivo. The procedure:
Direct current plasma-atomic emission spectroscopy [DCP-AES] (ARL/Fisons Model SS-7) was used (detection limit: 0.1 μg B/mL) to determine boron concentrations in tissues of individual mice. Samples (50-130 mg) were digested at 60° C. with sulfuric acid:nitric acid (1:1). Triton X-100 and water were added to give final concentrations of ˜50 mg tissue/mL, 15% total acid v/v and 5% Triton X-100 v/v. […] It is known that the ether linkages between the porphyrin and carborane cages remain intact in vivo.

Data set [2] concerns SCCVII squamous cell carcinomas.
Method: Mice were euthanized when the tumour volume reached 500 mm^3; and
SCCVII murine squamous cell carcinoma cells were cultured in D-MEM enriched with 10% fetal bovine serum, 1% penicillin/streptomycin and 1% L-glutamine. Only passages 1-3 were used to initiate tumours. Cells (2×10^5 in 0.05 mL of medium) were then implanted sc into the left thighs of 20-25 g female C3H mice (Charles River Laboratories, Wilmington, Mass.).
Due to the large number of animals to be dosed and irradiated, it was necessary to split the animals into two equally sized groups: Groups A and B. Animals in each Group A were injected on day 7 after tumour implantation, while animals in each Group B were injected on day 8 post tumour implantation.
The animals in Group A were irradiated 8 days, and those in Groups B were irradiated 9 days after tumour implantation. Mice were anesthetized (sodium pentobarbital, ˜60 μg/g i.p.) and positioned for irradiation with the tumour-bearing leg extended across a 2-cm diameter collimated irradiation port. Tumours were irradiated using a single dose fraction of 32 gy at a dose-rate of 2.0 Gy/min using a Philips RT-100 set, operating at 100 kVp and 8 mA.
Tumours were measured 2-3 times per week and the mice were killed humanely when the calculated tumour volume (x^2y/2, where x is the shorter surface dimension) exceeded 500 mm^3.
Dosimetry for X-irradiation was carried out using a thimble ionization chamber applying the 1996 IPEB code of practice.
Setting [3] is: 150 mg/kg MTL005 + 32 Gy vs 32 Gy alone.
Where [4] appears, read: 150 mg/kg MTL005 i.p. one day prior to 32 Gy X-rays, 11 mice.

For “copper meso-5,15-bis[3-[(1,2-dicarba-closo-dodecaboranyl)methoxy]phenyl]-meso-10,20-dinitroporphyrin [MTL005]”, in data set [1], the “Retention of active sensitiser in the tumour after single administration” value is reported as “still a significant concentration of active sensitiser in the tumour”. In data set [2] (setting [3]), the “Number of surviving mice compared with X-rays alone” value is “higher” and the “Tumour control compared with X-rays alone (Kaplan-Meier, FIG. 2)” value is “greater tumour control”. Besides, in data set [2] (setting [4]), the “% Tumour control” value amounted to 54.5%; the “Controlled tumours (volume of 0 mm^3), number of mice” value was found to be 6; the “Mice alive at 62 days with observable tumours” value is 2. In addition, the “Number of controlled tumours compared to radiation alone” value in data set [2] (32 Gy) is “doubled”.
